We go through five molecules from patent US4289910A, “1-Hydroxymethyl-prosten-1-ol derivatives” (American Cyanamid Company, priority 1980, dated 1981).

Common to all, as to type: in vivo
Test [1] deals with Ach. Briefly: Konzett data, Ach.
Test [2] deals with 5-HT. The experiment in a line: Konzett data, 5-HT.
Test [3] deals with Hist. The experiment in a line: Konzett data, Hist.

Molecule `C=CC(O)(C/C=C/[C@H]1[C@H](O)CC(=O)[C@@H]1CCCCCCC(O)CO)CCCC` (relative stereo) [3β-(4-Butylhydroxy-4-hydroxy-1,5-hexadienyl)-2α-(7,8-dihydroxyoctyl)-4α-hydroxycyclopentanone] yielded an ED50 in test [1] of 20.1 mg/kg.
On the same count and under the same terms, the result for `CCCCC(C)(O)C/C=C/[C@H]1[C@H](O)CC(=O)[C@@H]1C/C=C\CCCC(O)CO` (relative stereo) [11α,16-Dihydroxy-1-hydroxymethyl-16-methyl-9-oxo-5-cis-13-trans-prostadien-1-ol] reads 331 mg/kg; that for `C=CC(O)(C/C=C/[C@H]1[C@H](O)CC(=O)[C@@H]1C/C=C\CCCC(O)CO)CCCC` (relative stereo) [11α,16-Dihydroxy-1-hydroxymethyl-16-vinyl-9-oxo-5-cis-13-trans-prostadien-1-ol], 11.8 mg/kg.
As for `CCCCCC(C)(O)/C=C/C1C(O)CC(=O)C1C/C=C\CCCCO` (racemic) [dl-1,11 ,15-trihydroxymethyl-9-oxo-15-methyl-5-cis-13-trans prostadiene], in test [2], the “5-HT (ED50)” value was 8.3 mg/kg. In addition, in test [1], the “Ach (ED50)” value worked out at 4.3 mg/kg. Also, in test [3], the “Hist (ED50)” value came to 0.75 mg/kg.
In test [1], `CCCCC(C)(O)C/C=C/[C@H]1[C@H](O)CC(=O)[C@@H]1CCCCCCC(O)CO` (relative stereo) [11α,16-Dihydroxy-1-hydroxymethyl-16-methyl-,9-oxo-13-trans-prosten-1-ol] had an ED50 of 75.9 mg/kg.
